Data reported in patent US4764591A, “Des-19-leucine, 20-glutamine, 21-threonine, 22-tyrosine-calcitonin” (Rorer Pharmaceutical Corporation, priority 1987, dated 1988).
Positions of bridges follow the written chain, without caps; N, C: chain ends. Residues, ends and D or L forms follow the SMILES beside them.

Experiments:
[1] = system: serum calcium concentration
Procedure: Biological Assay of Calcitonin Analogs in Vivo
Rats were divided into four groups of seven animals, and each group was assigned at random to a dose of standard or test solution. Low and high doses were chosen from the linear portion of the dose-response curve. For the salmon calcitonin standard, the values were 0.7 and 2.1 ng. peptide/100 g. body weight (BW). This dose approximates 3 and 9 MU/100 g. BW. Peptides were given by subcutaneous injection (0.2 ml/100 g. BW) and blood was withdrawn 1 hour later for serum calcium determination. Sera are processed and analyzed within two hours of collection. Results were analyzed within two hours of collection.

[2] = literature values; cited from earlier work

CC(C)C[C@H](NC(=O)[C@H](CCCCN)NC(=O)CNC(=O)[C@H](CC(C)C)NC(=O)[C@@H](NC(=O)[C@@H]1CSSC[C@H](N)C(=O)N[C@@H](CO)C(=O)N[C@@H](CC(N)=O)C(=O)N[C@@H](CC(C)C)C(=O)N[C@@H](CO)C(=O)N[C@@H]([C@@H](C)O)C(=O)N1)C(C)C)C(=O)N[C@@H](CO)C(=O)N[C@@H](CCC(N)=O)C(=O)N[C@@H](CCC(=O)O)C(=O)N[C@@H](CC(C)C)C(=O)N[C@@H](Cc1c[nH]cn1)C(=O)N[C@@H](CCCCN)C(=O)N1CCC[C@H]1C(=O)N[C@@H](CCCNC(=N)N)C(=O)N[C@H](C(=O)N[C@@H](CC(N)=O)C(=O)N[C@H](C(=O)NCC(=O)N[C@@H](CO)C(=O)NCC(=O)N[C@H](C(=O)N1CCC[C@H]1C(N)=O)[C@@H](C)O)[C@@H](C)O)[C@@H](C)O [des-Leu^19, Gln^20, Thr^21, Tyr^22 -SCT, des-19-leucine, 20-glutamine, 21-threonine, 22-tyrosine-salmon calcitonin] (H-CSNLSTCVLGKLSQELHKPRTNTGSGTP-NH2; disulfide 1-7)
biological potency ([1]; rat, in vivo, sc): 6250 IU/mg

CC(C)C[C@H](NC(=O)[C@H](CCCCN)NC(=O)CNC(=O)[C@H](CC(C)C)NC(=O)[C@@H](NC(=O)[C@@H]1CSSC[C@H](N)C(=O)N[C@@H](CO)C(=O)N[C@@H](CC(N)=O)C(=O)N[C@@H](CC(C)C)C(=O)N[C@@H](CO)C(=O)N[C@@H]([C@@H](C)O)C(=O)N1)C(C)C)C(=O)N[C@@H](CO)C(=O)N[C@@H](CCC(N)=O)C(=O)N[C@@H](CCC(=O)O)C(=O)N[C@@H](CC(C)C)C(=O)N[C@@H](Cc1c[nH]cn1)C(=O)N[C@@H](CCCCN)C(=O)N[C@@H](CC(C)C)C(=O)N[C@@H](CCC(N)=O)C(=O)N[C@H](C(=O)N[C@@H](Cc1ccc(O)cc1)C(=O)N1CCC[C@H]1C(=O)N[C@@H](CCCNC(=N)N)C(=O)N[C@H](C(=O)N[C@@H](CC(N)=O)C(=O)N[C@H](C(=O)NCC(=O)N[C@@H](CO)C(=O)NCC(=O)N[C@H](C(=O)N1CCC[C@H]1C(N)=O)[C@@H](C)O)[C@@H](C)O)[C@@H](C)O)[C@@H](C)O [standard salmon calcitonin, salmon calcitonin]
potency content of the standard, independently determined ([1]; standard salmon calcitonin used in the assay, independently determined): greater than 4,000 IU/mg

(1,7-alpha-L-amino-suberic acid) eel calcitonin
hypocalcemic potency [2]: about 3400 IU/mg.

eel calcitonin [synthetic eel calcitonin]
hypocalcemic potency [2]: around 4300 IU/mg.
